Laboratory results taken from US12083105B2, “Compositions and methods for treating adult-onset neuronal ceroid lipofuscinosis (Kufs disease)” (CORNELL UNIVERSITY, priority 2020, dated 2024).

Test system: SNAP-25
Assay: SNAP-25 levels in total lysate of CSPα−/− primary cortical neurons (quantitative immunoblotting, β-actin normalization)
Format: cell-based, mice
Conditions: 200 μM, 72 h, FIG. 3D; for augmentation of SNAP-25 levels: neurons expressing CSPα^L115R and CSPα^L116Δ; for SNAP-25 levels: neurons expressing CSPα^WT or SSPα
Text: For the experiments shown in FIGS. 3A-3E, primary cortical neurons from neonatal CSPα^−/− mice were infected with lentiviruses expressing Myc-tagged CSPα^WT, CSPα^L115R, CSPα^L116Δ, SSPα, or empty lentivirus (Control) on 7 days in vitro (DIV) and examined on 17 DIV. […] The lentivirus infected cells were stained using antibodies against Myc (green), somatodendritic marker MAP2 (red), and counterstained with nuclear stain DAPI (blue). […] Immunoprecipitation (IP) for SNAP-25 was followed by quantitative immunoblotting of the co-immunoprecipitated (co-IP'd) CSPα (top blot), and normalized to the IP'd SNAP-25 (bottom blot). IP: Control=sham IP without IgG. Palm=palmitoylated. […] The mutant CSPα signal was normalized to the amount of immunoprecipitated wilt type CSPα. N.D.=not detected. Representative data from of n=4 shown. […] Immunoprecipitation using anti-synaptobrevin-2 (Syb-2) antibody was followed by quantitative immunoblotting of co-IP'd SNARE-complex partners syntaxin-1 (Synt-1) and SNAP-25. IP: Control=sham IP with plain rabbit serum. […] The Synt-1 signal was normalized to the amount of each normalized to the IP'd Syb-2. Representative data from of n=4 shown. […] The SNAP-25 signal was normalized to the amount of each normalized to the IP'd Syb-2. For the experiments shown in FIGS. 3D-3E, CSPα^−/− primary cortical neurons were lentivirally infected to express Myc-tagged CSPα^WT, CSPα^L115R, CSPα^L116Δ, SSPα, or empty lentivirus (Control) on 5 DIV, and were treated on 12 DIV with vehicle (-=0.1% DMSO), or iron chelators deferiprone (L1=200 μM) and deferoxamine (Dfx=200 μM) for 72 h. […] Cell extracts were separated by SDS-PAGE, and subjected to quantitative immunoblotting using anti-SNAP-25 antibody and β-actin for normalization. To measure palmitoylation, oligomers were disrupted by lysing neurons in 0.1 N HCl plus 0.1% Triton X-100 for 20 min at 4° C., followed by SDS-PAGE and quantitative immunoblotting against CSPα. Representative immunoblots are shown. […] FIG. 3D (right panel) show quantitation of oligomers, palmitoylated CSPα, respectively, in corresponding lane and expressed as a percentage of total. […] Cell extracts were immunoprecipitated using a negative control or anti-Syb-2 antibody, followed by quantitative immunoblotting of the co-IP'd t-SNAREs SNAP-25 and Synt-1. […] In FIGS. 3B-3E data represent means±SEM. *P<0.05; **P<0.01; ***P<0.001; ****P<0.0001 by two-tailed Student's t-test. #P<0.05 by Mann-Whitney-Wilcoxon U test. n.s.=not significant; n.d.=not detected. […]
For SDS-PAGE, 10-15% Laemmli gels (10.3% T and 3.3% C) were used to separate proteins on Bio-Rad apparati. […] Immunoblots were washed 5× with TBS-T and dried, then scanned on Odyssey CLx (LI-COR) and quantified using Image-Studio software (LI-COR). […]

Row | SMILES | augmentation of SNAP-25 levels | SNAP-25 levels
1 | CC(=O)N(O)CCCCCNC(=O)CCC(=O)N(O)CCCCCNC(=O)CCC(=O)N(O)CCCCCN [Dfx, N′-[5-(Acetyl-hydroxy-amino)pentyl]-N-[5-[3-(5-aminopentyl-hydroxy-carbamoyl)propanoylamino]pentyl]-N-hydroxy-butane diamide] | approximately two-fold | neither L1 nor Dfx affected SNAP-25 levels
2 | Cc1c(O)c(=O)ccn1C [L1, 3-hydroxy-1,2-dimethyl-4(1H)-pyridone] | approximately two-fold | neither L1 nor Dfx affected SNAP-25 levels
